Laboratory results taken from US10260079B2, “Method for producing ergothioneine by using soybean cake powder as nitrogen source in a seed medium” (TIANJIN INSTITUTE OF INDUSTRIAL BIOTECHNOLOGY, CHINESE …, priority 2014, dated 2019).
Values joined by “and” are separate entries in the source; they are usually repeats but may differ in a detail not shown here. Identical values can stand only once. Like-named read-outs stand apart in the source and are kept apart here.

Test system: Pleurotus ostreatus mycelia CGMCC No. 6232
Test: Shake-flask fermentation, total content of ergothioneine in the fermentation broth by HPLC
Type: cell-based
[1] = Pleurotus ostreatus, CGMCC6232, 360 h, read-out: content of ergothioneine improved compared with control group

N[C@@H](CC(=O)O)C(=O)O [aspartic acid]
activation at 5000 µg/mL (Pleurotus ostreatus, CGMCC6232, 360 h, aspartic acid 5 g/L, read-out: content of ergothioneine improved compared with control group): 14.1% | Content of ergothioneine in fermentation broth (aspartic acid 0.05 g/L added in fermentation medium): 124.1 ± 3.07 mg/L | Content of ergothioneine in fermentation broth (aspartic acid 0.5 g/L added in fermentation medium): 128 ± 2.51 mg/L | Content of ergothioneine in fermentation broth (aspartic acid 1 g/L added in fermentation medium): 130.1 ± 4.28 mg/L | Content of ergothioneine in fermentation broth (aspartic acid 5 g/L added in fermentation medium): 135.9 mg/L and 135.9 ± 3.64 mg/L | Content of ergothioneine in fermentation broth (aspartic acid 7 g/L added in fermentation medium): 127.9 ± 2.59 mg/L | Content of ergothioneine in fermentation broth (aspartic acid 9 g/L added in fermentation medium): 123.8 ± 2.88 mg/L

N[C@@H](Cc1c[nH]cn1)C(=O)O [histidine]
activation at 1000 µM (Pleurotus ostreatus, CGMCC6232, 360 h, histidine 1 mmol/L, read-out: content of ergothioneine improved compared with control group): 7.7%

[Cl-].[Na+] [NaCl]
content of ergothioneine improved compared with control group: 6.63%

N[C@@H](CS)C(=O)O [cysteine]
activation at 15000 µM (Pleurotus ostreatus, CGMCC6232, 360 h, cysteine 15 mmol/L added on the 6th day, read-out: content of ergothioneine improved compared with control group): 56% | activation at 15000 µM (Pleurotus ostreatus, CGMCC6232, 360 h, cysteine 15 mmol/L, read-out: content of ergothioneine improved compared with control group): 46% | Content of ergothioneine in fermentation broth (cysteine 2 mmol/L added in fermentation medium): 124.8 ± 2.03 mg/L | Content of ergothioneine in fermentation broth (cysteine 9 mmol/L added in fermentation medium): 140.4 ± 1.83 mg/L | Content of ergothioneine in fermentation broth (cysteine 15 mmol/L added in fermentation medium): 175.5 mg/L and 175.5 ± 1.36 mg/L | Content of ergothioneine in fermentation broth (cysteine 15 mmol/L, timing for adding 0 d (before the fermentation)): 170.3 ± 1.92 mg/L | Content of ergothioneine in fermentation broth (cysteine 15 mmol/L, timing for adding 2 d): 177.4 ± 2.33 mg/L | Content of ergothioneine in fermentation broth (cysteine 15 mmol/L, timing for adding 4 d): 186.1 ± 1.67 mg/L | Content of ergothioneine in fermentation broth (cysteine 15 mmol/L, timing for adding 6 d): 193.8 mg/L and 193.8 ± 4.16 mg/L | Content of ergothioneine in fermentation broth (cysteine 15 mmol/L, timing for adding 8 d): 172.1 ± 1.73 mg/L | Content of ergothioneine in fermentation broth (cysteine 15 mmol/L, timing for adding 10 d): 156.5 ± 2.52 mg/L | Content of ergothioneine in fermentation broth (cysteine 25 mmol/L added in fermentation medium): 164.6 ± 4.31 mg/L | Content of ergothioneine in fermentation broth (cysteine 35 mmol/L added in fermentation medium): 148.1 ± 2.74 mg/L | Content of ergothioneine in fermentation broth (cysteine 45 mmol/L added in fermentation medium): 126.1 ± 2.99 mg/L

span 80
Content of ergothioneine in fermentation broth (span 80 0.2 g/L added in fermentation medium): 124.7 ± 2.59 mg/L | Content of ergothioneine in fermentation broth (span 80 0.5 g/L added in fermentation medium): 156.3 ± 1.92 mg/L | Content of ergothioneine in fermentation broth (span 80 1 g/L added in fermentation medium): 175.1 ± 2.83 mg/L | content of ergothioneine improved compared with control group (span 80 3 g/L): 69.7% | Content of ergothioneine in fermentation broth (span 80 3 g/L added in fermentation medium): 196.5 mg/L and 196.5 ± 3.54 mg/L | Content of ergothioneine in fermentation broth (span 80 5 g/L added in fermentation medium): 184.3 ± 3.7 mg/L | Content of ergothioneine in fermentation broth (span 80 10 g/L added in fermentation medium): 129.6 ± 1.18 mg/L

CC(=O)C(=O)O [pyruvic acid]
activation at 2200 µg/mL (Pleurotus ostreatus, CGMCC6232, 360 h, pyruvic acid 2.2 g/L, read-out: content of ergothioneine improved compared with control group): 5.9% | Content of ergothioneine in fermentation broth (pyruvic acid 0.05 g/L added in fermentation medium): 127.4 ± 0.57 mg/L | Content of ergothioneine in fermentation broth (pyruvic acid 0.1 g/L added in fermentation medium): 128.6 ± 1.03 mg/L | Content of ergothioneine in fermentation broth (pyruvic acid 0.5 g/L added in fermentation medium): 130.4 ± 0.82 mg/L | Content of ergothioneine in fermentation broth (pyruvic acid 1.0 g/L added in fermentation medium): 131.9 ± 1.43 mg/L | Content of ergothioneine in fermentation broth (pyruvic acid 2.2 g/L added in fermentation medium): 132.7 mg/L and 132.7 ± 0.46 mg/L | Content of ergothioneine in fermentation broth (pyruvic acid 4.5 g/L added in fermentation medium): 128.7 ± 0.69 mg/L

Nc1nc2ncc(CNc3ccc(C(=O)N[C@@H](CCC(=O)O)C(=O)O)cc3)nc2c(=O)[nH]1 [folic acid]
activation at 640 µg/mL (Pleurotus ostreatus, CGMCC6232, 360 h, folic acid 0.64 g/L, read-out: content of ergothioneine improved compared with control group): 25% | Content of ergothioneine in fermentation broth (folic acid 0.08 g/L added in fermentation medium): 121.4 ± 1.36 mg/L | Content of ergothioneine in fermentation broth (folic acid 0.16 g/L added in fermentation medium): 127.1 ± 2.24 mg/L | Content of ergothioneine in fermentation broth (folic acid 0.32 g/L added in fermentation medium): 136.9 ± 4.14 mg/L | Content of ergothioneine in fermentation broth (folic acid 0.64 g/L added in fermentation medium): 148.6 mg/L and 148.6 ± 1.54 mg/L | Content of ergothioneine in fermentation broth (folic acid 1.28 g/L added in fermentation medium): 143.8 ± 1.77 mg/L | Content of ergothioneine in fermentation broth (folic acid 2.56 g/L added in fermentation medium): 122.2 ± 3.03 mg/L

Cc1ncc(C[n+]2csc(CCO)c2C)c(N)n1 [VB1, vitamin B1]
Content of ergothioneine in fermentation broth (VB1 0.01 g/L added in fermentation medium): 122.7 ± 1.02 mg/L | Content of ergothioneine in fermentation broth (VB1 0.05 g/L added in fermentation medium): 128.8 ± 2.41 mg/L | content of ergothioneine improved compared with control group (VB1 0.1 g/L): 11.2% | Content of ergothioneine in fermentation broth (VB1 0.1 g/L added in fermentation medium): 132.2 mg/L and 132.2 ± 1.39 mg/L | Content of ergothioneine in fermentation broth (VB1 0.2 g/L added in fermentation medium): 129.6 ± 2.67 mg/L | Content of ergothioneine in fermentation broth (VB1 0.4 g/L added in fermentation medium): 127 ± 1.86 mg/L | Content of ergothioneine in fermentation broth (VB1 0.8 g/L added in fermentation medium): 123.3 ± 3.03 mg/L

Cl.N [NH4Cl]
Content of ergothioneine in fermentation broth (NH4Cl 0.5 g/L added in fermentation medium): 127 ± 1.87 mg/L | Content of ergothioneine in fermentation broth (NH4Cl 1 g/L added in fermentation medium): 133.7 ± 1.04 mg/L | Content of ergothioneine in fermentation broth (NH4Cl 2 g/L added in fermentation medium): 139.2 ± 1.55 mg/L | content of ergothioneine improved compared with control group (NH4Cl 4 g/L): 24.4% | Content of ergothioneine in fermentation broth (NH4Cl 4 g/L added in fermentation medium): 155.4 mg/L and 155.4 ± 2.68 mg/L | Content of ergothioneine in fermentation broth (NH4Cl 8 g/L added in fermentation medium): 141.8 ± 0.68 mg/L | Content of ergothioneine in fermentation broth (NH4Cl 12 g/L added in fermentation medium): 128.6 ± 3.53 mg/L

NCCCC[C@H](N)C(=O)O [lysine]
Content of ergothioneine in fermentation broth: 124.8 ± 0.72 mg/L and 125.6 ± 2.03 mg/L and 128.9 ± 2.12 mg/L and 133.7 ± 1.51 mg/L and 135.1 ± 0.66 mg/L and 126.3 ± 2.67 mg/L | activation at 5000 µg/mL [1]: 13.4%

N[C@@H](CCC(=O)O)C(=O)O [glutamic acid]
activation at 10 µM (Pleurotus ostreatus, CGMCC6232, 360 h, glutamic acid 10 μmol/L, read-out: content of ergothioneine improved compared with control group): 9.1% | Content of ergothioneine in fermentation broth (glutamic acid 1 μmol/L added in fermentation medium): 123.6 ± 0.92 mg/L | Content of ergothioneine in fermentation broth (glutamic acid 5 μmol/L added in fermentation medium): 128.8 ± 1.19 mg/L | Content of ergothioneine in fermentation broth (glutamic acid 10 μmol/L added in fermentation medium): 131.2 mg/L and 131.2 ± 2.62 mg/L | Content of ergothioneine in fermentation broth (glutamic acid 50 μmol/L added in fermentation medium): 124 ± 1.72 mg/L | Content of ergothioneine in fermentation broth (glutamic acid 100 μmol/L added in fermentation medium): 122.7 ± 1.63 mg/L

O=C(O)CC(O)(CC(=O)O)C(=O)O [citric acid]
activation at 400 µg/mL (Pleurotus ostreatus, CGMCC6232, 360 h, citric acid 0.4 g/L, read-out: content of ergothioneine improved compared with control group): 10.4% | Content of ergothioneine in fermentation broth (citric acid 0.01 g/L added in fermentation medium): 126.9 ± 2.75 mg/L | Content of ergothioneine in fermentation broth (citric acid 0.05 g/L added in fermentation medium): 130.2 ± 1.31 mg/L | Content of ergothioneine in fermentation broth (citric acid 0.2 g/L added in fermentation medium): 135.4 ± 0.83 mg/L | Content of ergothioneine in fermentation broth (citric acid 0.4 g/L added in fermentation medium): 138.3 mg/L and 138.3 ± 2.49 mg/L | Content of ergothioneine in fermentation broth (citric acid 0.8 g/L added in fermentation medium): 128.4 ± 1.16 mg/L

NH4NO3
Content of ergothioneine in fermentation broth: 127.2 ± 1.18 mg/L and 134 ± 2.46 mg/L and 140.7 ± 3.74 mg/L and 148 ± 0.82 mg/L and 141.4 ± 1.98 mg/L and 129.7 ± 1.03 mg/L | content of ergothioneine improved compared with control group: 18.5%

OCC(O)CO [glycerol]
activation at 75000 µg/mL (Pleurotus ostreatus, CGMCC6232, 360 h, glycerol 75 g/L vs 50 g/L, casein peptone 50 g/L, read-out: content of ergothioneine improved compared with control group): 8.5% | Content of ergothioneine in fermentation broth (glycerol 65 g/L, casein peptone 50 g/L in fermentation medium (control glycerol 50 g/L)): 162.4 ± 2.67 mg/L | Content of ergothioneine in fermentation broth (glycerol 75 g/L, casein peptone 50 g/L in fermentation medium (control glycerol 50 g/L)): 170.2 mg/L and 170.2 ± 3.49 mg/L | Content of ergothioneine in fermentation broth (glycerol 85 g/L, casein peptone 50 g/L in fermentation medium (control glycerol 50 g/L)): 164.8 ± 3.41 mg/L | Content of ergothioneine in fermentation broth (glycerol 95 g/L, casein peptone 50 g/L in fermentation medium (control glycerol 50 g/L)): 160.1 ± 1.15 mg/L

N=C(N)NCCC[C@H](N)C(=O)O [arginine]
activation at 2000 µg/mL [1]: 12.7%

O=C(O)CCCc1c[nH]c2ccccc12 [indolebutyric acid]
Content of ergothioneine in fermentation broth (indolebutyric acid 0.1 mg/L added in fermentation medium): 130.9 ± 2.23 mg/L | Content of ergothioneine in fermentation broth (indolebutyric acid 0.5 mg/L added in fermentation medium): 138.4 ± 1.29 mg/L | content of ergothioneine improved compared with control group (indolebutyric acid 1 mg/L): 9.33% | Content of ergothioneine in fermentation broth (indolebutyric acid 1 mg/L added in fermentation medium): 140.6 mg/L and 140.6 ± 3.09 mg/L | Content of ergothioneine in fermentation broth (indolebutyric acid 2 mg/L added in fermentation medium): 137.7 ± 1.84 mg/L | Content of ergothioneine in fermentation broth (indolebutyric acid 4 mg/L added in fermentation medium): 132.8 ± 0.93 mg/L

C[N+](C)(C)CC(=O)O [betaine]
activation at 150000 µM (Pleurotus ostreatus, CGMCC6232, 360 h, betaine 150 mmol/L, read-out: content of ergothioneine improved compared with control group): 22% | Content of ergothioneine in fermentation broth (betaine 50 mmol/L added in fermentation medium): 125.3 ± 2.67 mg/L | Content of ergothioneine in fermentation broth (betaine 100 mmol/L added in fermentation medium): 130.1 ± 2.14 mg/L | Content of ergothioneine in fermentation broth (betaine 150 mmol/L added in fermentation medium): 146.6 mg/L and 146.6 ± 2.64 mg/L | Content of ergothioneine in fermentation broth (betaine 200 mmol/L added in fermentation medium): 129.9 ± 3.34 mg/L | Content of ergothioneine in fermentation broth (betaine 250 mmol/L added in fermentation medium): 124.8 ± 1.38 mg/L
